# Experimental data from patent US20250250287A1, “HETEROCYCLIC COMPOUNDS, COMPOSITIONS THEREOF, AND METHODS OF TREATMENT THEREWITH” (BeiGene Switzerland GmbH, priority 2022, published 2025).
# Tested on: pERK1/2(THR202/TYR204) level in SW620 cell line (KRAS G12V)
# Assay: KRAS G12V pERK assay (HTRF) in SW620 cell line
# Format: cell-based
# Settings: Homo sapiens, SW-620, 2 h, SW620 cells, 2 hrs compound treatment
# Experimental: SW620 cell line was used in this study. Cells were maintained in RPMI 1640 supplemented with 10% fetal bovine serum (Thermo Fisher), 50 units/mL penicillin and streptomycin (Thermo Fisher) and kept at 37° C. in a humidified atmosphere of 5% CO2 in air. Cells were reinstated from frozen stocks that were laid down within 30 passages from the original cells purchased. 40000 cells per well were seeded into a 96-well plate and incubated overnight. Cells were treated with a 10-point dilution series. The final compound concentration is from 0 to 10 μM. After 2 hrs compound treatment, cells were lysed, and the pERK1/2(THR202/TYR204) level in the cell lysates was detected by HTRF kit (Cisbio). In brief, a total of 16 μL of cell lysate from each well of a 96-well plate was transferred to a 384-well white assay plate. Lysate from each well was incubated with 2 μL of Eu3+-cryptate (donor) labeled anti-phospho-ERK1/2 and 2 μL of D2 (acceptor) labeled anti-phospho-ERK1/2 antibodies (Cisbio) overnight in dark at room temperature. When donor and acceptor are in close proximity, excitation of the donor with laser triggers a Fluorescence Resonance Energy Transfer (FRET) towards the acceptor, which in turn fluoresces at 655 nm wavelength. FRET signals were measured using a PHERAstar FSX reader (BMG Labtech). IC50 determination was performed by fitting the curve of percent inhibition versus the log of the inhibitor concentration using Dotmatics.
row,Molecule,IC50 [nM]
1,"N#Cc1c(N)sc2c(F)ccc(-c3cc4c5c(nc(OC[C@@]67CCCN6C[C@H](F)C7)nc5c3F)N3CCC[C@H]3CO4)c12 [Example 1, 2-amino-7-fluoro-4-((S)-4-fluoro-2-(((2R,7aS)-2-fluorotetrahydro-1H-pyrrolizin-7a(5H)-yl)methoxy)-8a,9,10,11-tetrahydro-8H-pyrrolo[2′,1′:3,4][1,4]oxazepino[5,6,7-de]quinazolin-5-yl)benzo[b]thiophene-3-carbonitrile]",290
2,"C#Cc1c(F)ccc2cc(O)cc(-c3cc4c5c(nc(OC[C@@]67CCCN6C[C@H](F)C7)nc5c3F)N3CC(F)(F)C[C@H]3CO4)c12 [Example 4, 5-ethynyl-6-fluoro-4-((S)-2,2,8-trifluoro-6-(((2R,7aS)-2-fluorotetrahydro-1H-pyrrolizin-7a(5H)-yl)methoxy)-2,3,12,12a-tetrahydro-1H-pyrrolo[2′,1′:3,4][1,4]oxazepino[5,6,7-de]quinazolin-9-yl)naphthalen-2-ol]",658
3,"N#Cc1c(N)sc2c(F)ccc(-c3cc4c5c(nc(OC[C@@]67CCCN6C[C@H](F)C7)nc5c3F)N3CCC[C@@H]3CCO4)c12 [Example 5, 2-amino-7-fluoro-4-((R)-8-fluoro-6-(((2R,7aS)-2-fluorotetrahydro-1H-pyrrolizin-7a(5H)-yl)methoxy)-1,2,3,12,13,13a-hexahydropyrrolo[1′,2′:5,6][1,5]oxazocino[4,3,2-de]quinazolin-9-yl)benzo[b]thiophene-3-carbonitrile]",668
4,"C#Cc1c(F)ccc2cc(O)cc(-c3cc4c5c(nc(OC[C@@]67CCCN6C[C@H](F)C7)nc5c3F)N3CCCCC3CCO4)c12 (stereo partly drawn) [Example 6, 5-ethynyl-6-fluoro-4-(1-fluoro-13-(((2R,7aS)-2-fluorotetrahydro-1H-pyrrolizin-7a(5H)-yl)methoxy)-6,6a,7,8,9,10-hexahydro-5H-pyrido[1′,2′:5,6][1,5]oxazocino[4,3,2-de]quinazolin-2-yl)naphthalen-2-ol]",271
5,"N#Cc1c(N)sc2c(F)ccc(-c3c(Cl)c4c5c(nc(OC[C@@]67CCCN6C[C@H](F)C7)nc5c3F)N3CCC[C@@H]3CCO4)c12 [Example 7, 2-amino-4-((13aR)-10-chloro-8-fluoro-6-(((2R,7aS)-2-fluorotetrahydro-1H-pyrrolizin-7a (5H)-yl)methoxy)-1,2,3,12,13,13a-hexahydropyrrolo[1′,2′:5,6][1,5]oxazocino[4,3,2-de]quinazolin-9-yl)-7-fluorobenzo[b]thiophene-3-carbonitrile]",49
6,"Nc1cc(Cl)c(C(F)(F)F)c(-c2nc3c4c(nc(OC[C@@]56CCCN5C[C@H](F)C6)nc4c2F)N2CCC[C@H]2CO3)c1 [Example 9, 3-chloro-5-((S)-7-fluoro-5-(((2R,7aS)-2-fluorotetrahydro-1H-pyrrolizin-7a(5H)-yl)methoxy)-2,3,11,11a-tetrahydro-1H-10-oxa-3a,4,6,9-tetraazanaphtho[1,8-e]azulen-8-yl)-4-(trifluoromethyl)aniline]",890
7,"C#Cc1c(F)ccc2cc(O)cc(-c3nc4c5c(nc(OC[C@@]67CCCN6C[C@H](F)C7)nc5c3F)N3CCC[C@H]3CO4)c12 [Example 10, 5-ethynyl-6-fluoro-4-((S)-7-fluoro-5-(((2R,7aS)-2-fluorotetrahydro-1H-pyrrolizin-7a(5H)-yl)methoxy)-2,3,11,11a-tetrahydro-1H-10-oxa-3a,4,6,9-tetraazanaphtho[1,8-ef]azulen-8-yl)naphthalen-2-ol]",43
8,"Nc1cc(Cl)c(C(F)(F)F)c(-c2nc3c4c(nc(OC[C@@]56CCCN5C[C@H](F)C6)nc4c2F)N2CCC[C@@H]2CCO3)c1 [Example 11, 3-chloro-5-((R)-7-fluoro-5-(((2R,7aS)-2-fluorotetrahydro-1H-pyrrolizin-7a(5H)-yl)methoxy)-1,2,3,11,12,12a-hexahydro-10-oxa-3a,4,6,9-tetraazacyclopenta[4,5]cycloocta[1,2,3-de]naphthalen-8-yl)-4-(trifluoromethyl)aniline]",66
9,"Cc1cc(N)cc(-c2nc3c4c(nc(OC[C@@]56CCCN5C[C@H](F)C6)nc4c2F)N2CCC[C@@H]2CCO3)c1C(F)(F)F [Example 12, 3-((R)-7-fluoro-5-(((2R,7aS)-2-fluorotetrahydro-1H-pyrrolizin-7a(5H)-yl)methoxy)-1,2,3,11,12,12a-hexahydro-10-oxa-3a,4,6,9-tetraazacyclopenta[4,5]cycloocta[1,2,3-de]naphthalen-8-yl)-5-methyl-4-(trifluoromethyl)aniline]",56
10,"Nc1cc(Cl)c(C(F)(F)F)c(-c2nc3c4c(nc(OC[C@@]56CCCN5C[C@H](F)C6)nc4c2F)N2CCC[C@@H]2CO3)c1 [Example 13, 3-chloro-5-((R)-7-fluoro-5-(((2R,7aS)-2-fluorotetrahydro-1H-pyrrolizin-7a(5H)-yl)methoxy)-2,3,11,11a-tetrahydro-1H-10-oxa-3a,4,6,9-tetraazanaphtho[1,8-ef]azulen-8-yl)-4-(trifluoromethyl)aniline]",648
11,"Nc1cc(Cl)c(C(F)(F)F)c(-c2nc3c4c(nc(OC[C@@]56CCCN5C[C@H](F)C6)nc4c2F)N2CCCC[C@H]2CO3)c1 [Example 15, 3-chloro-5-((S)-1-fluoro-11-(((2R,7aS)-2-fluorotetrahydro-1H-pyrrolizin-7a(5H)-yl)methoxy)-5,5a,6,7,8,9-hexahydro-4-oxa-3,9a,10,12-tetraazabenzo[4,5]cyclohepta[1,2,3-de]naphthalen-2-yl)-4-(trifluoromethyl)aniline]",187
12,"Nc1cc(Cl)c(C(F)(F)F)c(-c2nc3c4c(nc(OC[C@@]56CCCN5C[C@H](F)C6)nc4c2F)N2CCC(F)C2CO3)c1 (stereo partly drawn) [Example 17, 3-chloro-5-(1,7-difluoro-5-(((2R,7aS)-2-fluorotetrahydro-1H-pyrrolizin-7a(5H)-yl)methoxy)-2,3,11,11a-tetrahydro-1H-10-oxa-3a,4,6,9-tetraazanaphtho[1,8-ef]azulen-8-yl)-4-(trifluoromethyl)aniline]",509
13,"C#Cc1c(F)ccc2cc(O)cc(-c3nc4c5c(nc(OC[C@@]67CCCN6C[C@H](F)C7)nc5c3F)N3C[C@H](F)C[C@H]3CO4)c12 [Example 19, 4-((2R,11aS)-2,7-difluoro-5-(((2R,7aS)-2-fluorotetrahydro-1H-pyrrolizin-7a(5H)-yl)methoxy)-2,3,11,11a-tetrahydro-1H-10-oxa-3a,4,6,9-tetraazanaphtho[1,8-ef]azulen-8-yl)-5-ethynyl-6-fluoronaphthalen-2-ol]",112

# Same assay, conditions: SW620 cells, 2 hrs compound treatment
row,Molecule,IC50 [nM]
1,"3-chloro-5-(1-fluoro-12-(((2R,7aS)-2-fluorotetrahydro-1H-pyrrolizin-7a(5H)-yl)methoxy)-6,6a,7,8,9,10-hexahydro-5H-4-oxa-3,10a,11,13-tetraazabenzo[4,5]cycloocta[1,2,3-de]naphthalen-2-yl)-4-(trifluoromethyl)aniline [Example 8]",290
2,"C#Cc1c(F)ccc2cc(O)cc(-c3nc4c5c(nc(OCC67CCCN6CC(F)C7)nc5c3F)N3CCC3CO4)c12 (single isomer, unassigned) [Example 18]",326
3,"C#Cc1c(F)ccc2cc(O)cc(-c3nc4c5c(nc(OCC67CCCN6CC(F)C7)nc5c3F)N3CCC3CO4)c12 (single isomer, unassigned) [Example 20]",40
